Laboratory results reported in US6664241B2, “Water-soluble amide derivatives of polyene macrolides and preparation and uses thereof” (Micrologix Biotech Inc., priority 2000, dated 2003).
≈ marks a conversion by molar mass, not a printed value. Read-outs that look alike come from different tables or passages of the source.

How the values were obtained:
C. albicans [1] = assay: 7 day kidney bioburden evaluation in neutropenic mice challenged with C. albicans; assay type: in vivo, Swiss-Webster mice; settings: intraperitoneally once daily for 7 days, 50% of animals with 2 log10 reduction in kidney CFU
Protocol: (§1) A variety of the compounds synthesized as described in Section 5, supra, were tested in various in vivo assays, as described below. The results of the various assays are provided in TABLE 3, presented at the end of this section. In all of the in vivo assays described, the test compounds, in the form of the aspartate salts, were formulated in an aqueous vehicle (5% mannitol in sterile water; OSMITROL, Baxter Healthcare, Deerfield, Ill.), followed by appropriate dilutions. The formulations were prepared fresh before dosing.
(§2) AmB and AME were also tested for comparison. For AmB, the commercially available FUNGIZONE (Bristol-Meyers Squibb Co.) was used. Reported values are based upon the weight of the AmB active ingredient, not on the basis of the weight of the FUNGIZONE powder. AME was formulated in OSMITROL as described for the test compounds.
Various polyene macrolide amide derivatives of the invention were evaluated for their protective effect when administered intraperitoneally once daily for 7 days to neutropenic mice challenged with live C. albicans.
Swiss-Webster mice (Simonsen Laboratories, Gilroy, Calif.) were made neutropenic by intravenous administration of 5-fluorouracil (150 mg/kg) on study day −1. On study day 0, all mice received by intravenous injection a single inoculum (0.2 mL) containing as estimated 5.0×10^4 CFU of C. albicans. The day of inoculation was designated as study day 0. Beginning the day after infection (on study day 1), mice were treated intraperitoneally with vehicle alone or formulated test compound, once daily for 7 consecutive days.
(§3) The mice were observed daily from study day 1 through study day 8 (1 day after the last dose). Mice found dead or euthanized in extremis were removed from the study without further processing. Surviving mice were euthanized by inhalation of CO2 on study day 8 and both kidneys from each mouse were removed. Each pair of removed kidneys was homogenized in 3 mL of ice-cold PBS containing 10% glycerol. A portion of each homogenate was used to determine log10 CFU per kidney using SDA plates (48 hours of incubation at 30° C.). Kidney log10 CFU data were analyzed using a t-test. The criterion for a statistically significant response was set at p<0.01.
(§4) For comparison, the results for AmB and AME are also provided. Efficacy was defined for individual animals as a greater than 2 log10 reduction in kidney CFU relative to the mean vehicle control value.

C. albicans [2] = assay: Minimum Inhibitory Concentrations (MICs) against C. albicans, NCCLS M27-A broth dilution; assay type: cell-based
Protocol: For each compound synthesized, Minimum Inhibitory Concentrations (MICs) against C. albicans were determined as described in Reference Method for Broth Dilution Antifungal Susceptibility Testing of Yeasts, Approved Standard, NCCLS document M27-A (ISBN 1-56238-328-0), NCCLS, 940 West Valley Road, Suite 1400, Wayne, Pa. 19087, 1997.

[3] = dogs; cited from earlier work
[4] = Maximum non-lethal dose (NLD), single intravenous dose in mice; assay type: in vivo, Swiss-Webster male mice; settings: test compounds as aspartate salts in 5% mannitol, AmB as FUNGIZONE
Protocol: as §1, §2
Maximum non-lethal dose (NLD) data were obtained for selected compounds. A single intravenous dose was administered to each of four mice (Swiss-Webster male mice; Simonsen Laboratories, Gilroy, Calif.) in several groups. The doses selected were based upon the NLDs of compounds of similar structures. After review of findings, higher or lower doses were administered and a NLD was determined. The results are tabulated in TABLE 3, below (NLD Acute Mice). The values for AmB and AME are provided for comparison

[5] = human, in vivo; cited from earlier work
C. albicans [6] = assay: 5 day kidney bioburden evaluation in immunocompetent mice challenged with C. albicans; assay type: in vivo, Swiss-Webster mice; settings: intraperitoneally once daily for 5 days, immunocompetent mice, C. albicans, 50% of animals with 2 log10 reduction in kidney CFU
Protocol: as §1, §2
Various polyene macrolide amide derivatives of the invention were evaluated for their protective effect when administered intraperitoneally once daily for 5 days to immunocompetent mice challenged with live C. albicans.
C. albicans was grown on Sabouraud dextrose agar (SDA) plates for 48 hr. Colonies were harvested and washed twice by centrifugation in phosphate-buffered saline (PBS). The washed pellets were resuspended in PBS and diluted to achieve the desired number of fungi per milliliter. A portion of the inoculum was plated on SDA plates to determine the colony-forming units (CFU) per milliliter.
Swiss-Webster mice (Simonsen Laboratories, Gilroy, Calif.) were administered by intravenous injection a single inoculum (0.2 mL) containing as estimated 2.0×10^5 CFU of C. albicans. The day of inoculation was designated as study day 0. Beginning three days after injection, mice were treated intraperitoneally with vehicle alone or formulated test compound once daily for 5 consecutive days.
as §3, with “day 0” for “day 1”, “day 10 (3 days” for “day 8 (1 day”, “day 10” for “day 8”
as §4

[7] = Ascending single-dose nephrotoxicity study in rabbits; assay type: in vivo, Female New Zealand white rabbits; settings: ascending single intravenous infusion doses, urine volume, BUN, creatinine
Protocol: as §1
AmB and AME were also tested for comparison. For AmB, the commercially available FUNGIZONE (Bristol-Meyers Squibb Co.) was used. […]
Various polyene macrolide amide derivatives of the invention were evaluated to determine the intravenous dose of administered compound that produces nephrotoxicity in rabbits. Nephrotoxicity was monitored by measuring urine volume and blood urine nitrogen (BUN) and creatinine. […]
Ascending single doses were administered by intravenous infusion into an ear vein at a rate of 0.6 mL/min. […] Body weights were recorded before each dose, as well as 2 days after the last dose. Blood samples were collected from the rabbits two days prior to the first dose (study day −2) and approximately 24 hr after each dose and analyzed for BUN and creatinine. […]

[8] = Two week range-finding toxicity study in mice; assay type: in vivo, CD-1 mice; settings: for NOAEL at 2 week: both sexes, CD-1, mouse, in vivo, iv
Protocol: as §1, §2
Various polyene macrolide amide derivatives of the invention were evaluated to characterize their potential toxicity when administered subchronically by intravenous injection.
CD-1® mice (Charles River Laboratories, Portage, Mich.) were acclimated to laboratory conditions for at least 5 days before the start of dosing. During the acclimation period, the general condition of the mice was evaluated, and those considered healthy were used. The mice were randomly assigned to treatment groups using a stratified body weight regimen. Each treatment group consisted of 3 male and 3 female mice. The mice were housed in a room with a controlled environment and provided rodent chow and water ad libitum.
On the first day of dosing, the mice were approximately 7 to 9 weeks old and weighed 22 to 30 g. Doses were administered by intravenous injection once daily on study days 1 to 5 and 8 to 12. Dosages were selected based upon data from efficacy and toxicology studies, and ranged from 1.25 to 30 mg/kg/day. Clinical observations were recorded 0.5 hr after dosing on days 1, 3, 5, 8, 10, 12 and 15, and on any day a change was observed. Body weights were recorded prior to dosing and on study days 8 and 12, and on study day 15 at the completion of the in-life phase of the study.
Animals that were found in a moribund/deteriorating clinical state were euthanized (animal designated killed in extremis) by inhalation of CO2. The day of death for any animal found dead or killed in extremis was recorded. Any animal that died prematurely was removed from the study without further processing.
One day after completion of dosing (study day 16), all surviving mice were euthanized by inhalation of CO2. Their kidneys were preserved for histopathologic examination. The maximum no-observed-adverse-effect level (NOAEL) was determined on the basis of clinical and histopathologic findings. The values for AmB and AME are provided for comparison.

[9] = rats; cited from earlier work

SMILES | ED50 mice 7 day (C. albicans [1]) | MIC (C. albicans [2]) | acute, nephro- and hepato-toxicity versus amphotericin B [3] | NLD acute mice [4] | adverse effects in clinical trial [5] | ED50 mice 5 day (C. albicans [6]) | NOAEL acute rabbit [7] | NOAEL 2 week mice clinical ([8]; intravenous once daily on days 1 to 5 and 8 to 12, clinical findings) | NOAEL 2 week mice histological ([8]; intravenous once daily on days 1 to 5 and 8 to 12, histopathologic (kidney) findings) | acute, nephro- and hepato-toxicity versus amphotericin B [9] | ED50 (C. albicans [1]; Candida albicans, ip, 168 h) | MIC (C. albicans [2]; Candida albicans, read-out: MIC) | ED50 (C. albicans [6]; Candida albicans, ip, 120 h, read-out: ED50 mice 5 day) | NOAEL at 2 week ([8]; NOAEL 2 week mice clinical) | NOAEL at 2 week ([8]; NOAEL 2 week mice histological)
COC(=O)[C@H]1[C@@H]2C[C@@H](O[C@@H]3O[C@H](C)[C@@H](O)[C@H](N)[C@@H]3O)/C=C/C=C/C=C/C=C/C=C/C=C/C=C/[C@H](C)[C@@H](O)[C@@H](C)[C@H](C)OC(=O)C[C@H](O)C[C@H](O)CC[C@@H](O)[C@H](O)C[C@H](O)C[C@](O)(C[C@@H]1O)O2 [AME, amphotericin B methyl ester, reference compound] | 8.3 mg/kg | 0.75 µg/mL (≈ 0.799 µM) | lower acute, nephro- and hepato-toxicity than amphotericin B | 60 mg/kg | many patients developed progressive neurological dysfunction associated with white matter degeneration | 13.1 mg/kg | 7.5 mg/kg | >32 mg/kg | >32 mg/kg | lower acute, nephro- and hepato-toxicity than amphotericin B |  |  |  |  | 
CC1[C@H](C)OC(=O)C[C@H](O)C[C@H](O)CC[C@@H](O)[C@H](O)C[C@H](O)C[C@]2(O)C[C@H](O)C(C(=O)NCCN3CCCCC3)C(C[C@@H](OC3O[C@H](C)[C@@H](O)[C@H](NC[C@@]4(O)OC[C@@H](O)[C@H](O)[C@@H]4O)[C@@H]3O)/C=C/C=C/C=C/C=C/C=C/C=C/C=C/[C@H](C)[C@H]1O)O2 (stereo partly shown) [Compound 114] |  |  |  | 40 mg/kg |  |  |  |  |  |  | 6.1 mg/kg | 4 µg/mL (≈ 3.34 µM) | 9 mg/kg | 9 mg/kg | 9 mg/kg
